Experimental data from ChEMBL document CHEMBL2406972, “Synthesis and antitumor activities of novel dibenzo[b,d]furan-imidazole hybrid compounds” (Eur J Med Chem, 2013).

Legend:
SMMC-7721 [1] = assay: Cell cycle arrest in human SMMC7721 cells assessed as accumulation at G2/M phase at 6 uM after 24 hrs using PI staining by flow cytometry (reference value: 12.84%); format: functional
SMMC-7721 [2] = assay: Cell cycle arrest in human SMMC7721 cells assessed as accumulation at G1 phase after 24 hrs using PI staining by flow cytometry; format: functional, cell-based
SMMC-7721 [3] = assay: Cell cycle arrest in human SMMC7721 cells assessed as accumulation at G2/M phase at 3 uM after 24 hrs using PI staining by flow cytometry (reference value: 12.84%); format: functional
SMMC-7721 [4] = assay: Cell cycle arrest in human SMMC7721 cells assessed as accumulation at S phase at 6 uM after 24 hrs using PI staining by flow cytometry (reference value: 24.41%); format: functional
SMMC-7721 [5] = assay: Cell cycle arrest in human SMMC7721 cells assessed as accumulation at S phase at 3 uM after 24 hrs using PI staining by flow cytometry (reference value: 24.41%); format: functional
SMMC-7721 [6] = assay: Cell cycle arrest in human SMMC7721 cells assessed as accumulation at G1 phase at 6 uM after 24 hrs using PI staining by flow cytometry (reference value: 60.29%); format: functional
SMMC-7721 [7] = assay: Cell cycle arrest in human SMMC7721 cells assessed as accumulation at G1 phase at 3 uM after 24 hrs using PI staining by flow cytometry (reference value: 60.29%); format: functional
SMMC-7721 [8] = assay: Induction of apoptosis in human SMMC7721 cells at 9 uM after 48 hrs using by V-FITC/PI double-staining assay (reference value: 2.73 +/- 0.69%); format: functional
SMMC-7721 [9] = assay: Induction of apoptosis in human SMMC7721 cells at 3 uM after 48 hrs using by V-FITC/PI double-staining assay (reference value: 2.73 +/- 0.69%); format: functional
SMMC-7721 [10] = assay: Induction of apoptosis in human SMMC7721 cells at 6 uM after 48 hrs using by V-FITC/PI double-staining assay (reference value: 2.73 +/- 0.69%); format: functional
SMMC-7721 [11] = assay: Induction of apoptosis in human SMMC7721 cells assessed as early apoptotic cells at 9 uM after 48 hrs using by V-FITC/PI double-staining assay (reference value: 1.76%); format: functional
SMMC-7721 [12] = assay: Induction of apoptosis in human SMMC7721 cells assessed as late apoptotic cells at 9 uM after 48 hrs using by V-FITC/PI double-staining assay (reference value: 0.481%); format: functional
SMMC-7721 [13] = assay: Induction of apoptosis in human SMMC7721 cells assessed as viable cells at 9 uM after 48 hrs using by V-FITC/PI double-staining assay (reference value: 92.9%); format: functional; conditions: SMMC-7721, 48 h, read-out: Activity
SMMC-7721 [14] = assay: Induction of apoptosis in human SMMC7721 cells assessed as necrotic cells at 9 uM after 48 hrs using by V-FITC/PI double-staining assay (reference value: 4.90%); format: functional
SMMC-7721 [15] = assay: Induction of apoptosis in human SMMC7721 cells assessed as early apoptotic cells at 6 uM after 48 hrs using by V-FITC/PI double-staining assay (reference value: 1.76%); format: functional
SMMC-7721 [16] = assay: Induction of apoptosis in human SMMC7721 cells assessed as late apoptotic cells at 6 uM after 48 hrs using by V-FITC/PI double-staining assay (reference value: 0.481%); format: functional
SMMC-7721 [17] = assay: Induction of apoptosis in human SMMC7721 cells assessed as viable cells at 6 uM after 48 hrs using by V-FITC/PI double-staining assay (reference value: 92.9%); format: functional; conditions: SMMC-7721, 48 h, read-out: Activity
SMMC-7721 [18] = assay: Induction of apoptosis in human SMMC7721 cells assessed as necrotic cells at 6 uM after 48 hrs using by V-FITC/PI double-staining assay (reference value: 4.90%); format: functional
SMMC-7721 [19] = assay: Induction of apoptosis in human SMMC7721 cells assessed as early apoptotic cells at 3 uM after 48 hrs using by V-FITC/PI double-staining assay (reference value: 1.76%); format: functional
SMMC-7721 [20] = assay: Induction of apoptosis in human SMMC7721 cells assessed as late apoptotic cells at 3 uM after 48 hrs using by V-FITC/PI double-staining assay (reference value: 0.481%); format: functional
SMMC-7721 [21] = assay: Induction of apoptosis in human SMMC7721 cells assessed as viable cells at 3 uM after 48 hrs using by V-FITC/PI double-staining assay (reference value: 92.9%); format: functional; conditions: SMMC-7721, 48 h, read-out: Activity
SMMC-7721 [22] = assay: Induction of apoptosis in human SMMC7721 cells assessed as necrotic cells at 3 uM after 48 hrs using by V-FITC/PI double-staining assay (reference value: 4.90%); format: functional
SMMC-7721 [23] = assay: Cytotoxicity against human SMMC7721 cells after 48 hrs by MTT assay; format: functional, cell-based; conditions: SMMC-7721, 48 h
SW480 = assay: Cytotoxicity against human SW480 cells after 48 hrs by MTT assay; format: functional, cell-based; conditions: SW480, 48 h
A549 = assay: Cytotoxicity against human A549 cells after 48 hrs by MTT assay; format: functional, cell-based; conditions: A549, 48 h
MCF7 = assay: Cytotoxicity against human MCF7 cells after 48 hrs by MTT assay; format: functional, cell-based; conditions: MCF7, 48 h
HL-60 = assay: Cytotoxicity against human HL60 cells after 48 hrs by MTT assay; format: functional, cell-based; conditions: HL-60, 48 h

Structure (SMILES): O=C(C[n+]1cn(C(c2ccccc2)c2ccc3oc4ccccc4c3c2)c2ccccc21)c1ccc2ccccc2c1.[Br-] (configuration not stated)
- Activity (SMMC-7721 [1]): 0.75%
- Activity (SMMC-7721 [2]): Dose-dependent effect
- Activity (SMMC-7721 [3]): 4.96%
- Activity (SMMC-7721 [4]): 17.8%
- Activity (SMMC-7721 [5]): 26.8%
- Activity (SMMC-7721 [6]): 80.14%
- Activity (SMMC-7721 [7]): 67.74%
- Activity (SMMC-7721 [8]): 50.8%
- Activity (SMMC-7721 [9]): 7.6%
- Activity (SMMC-7721 [10]): 43.6%
- Activity (SMMC-7721 [11]): 11.9%
- Activity (SMMC-7721 [12]): 40.1%
- viability at 9 µM (SMMC-7721 [13]): 39.2%
- Activity (SMMC-7721 [14]): 8.76%
- Activity (SMMC-7721 [15]): 28.6%
- Activity (SMMC-7721 [16]): 13.8%
- viability at 6 µM (SMMC-7721 [17]): 53.4%
- Activity (SMMC-7721 [18]): 4.21%
- Activity (SMMC-7721 [19]): 3.46%
- Activity (SMMC-7721 [20]): 5.37%
- viability at 3 µM (SMMC-7721 [21]): 90.1%
- Activity (SMMC-7721 [22]): 1.06%
- IC50 (SMMC-7721 [23]): 2.86 µM
- IC50 (SW480): 3.59 µM
- IC50 (A549): 3.54 µM
- IC50 (MCF7): 1.04 µM
- IC50 (HL-60): 0.93 µM

Structure (SMILES): COc1ccc(C(=O)C[n+]2ccn(C(C)c3ccc4oc5ccccc5c4c3)c2)cc1 (configuration not stated)
- IC50 (SMMC-7721 [23]): 9.98 µM
- IC50 (SW480): 12.7 µM
- IC50 (A549): 12.2 µM
- IC50 (MCF7): 9.02 µM
- IC50 (HL-60): 3.45 µM

Structure (SMILES): CC(c1ccc2oc3ccccc3c2c1)n1cc[n+](Cc2ccc([N+](=O)[O-])cc2)c1 (configuration not stated)
- IC50 (SMMC-7721 [23]): 22.5 µM
- IC50 (SW480): > 40 µM
- IC50 (A549): > 40 µM
- IC50 (MCF7): 13.8 µM
- IC50 (HL-60): 11.3 µM

Structure (SMILES): Cc1n(C(C)c2ccc3oc4ccccc4c3c2)cc[n+]1CC(=O)c1ccc(Br)cc1 (configuration not stated)
- IC50 (SMMC-7721 [23]): 6.4 µM
- IC50 (SW480): 11.8 µM
- IC50 (A549): 12.8 µM
- IC50 (MCF7): 6.77 µM
- IC50 (HL-60): 2.67 µM

Structure (SMILES): c1ccc(C(c2ccc3oc4ccccc4c3c2)n2ccnc2)cc1 (configuration not stated)
- IC50 (SMMC-7721 [23]): 33.7 µM
- IC50 (SW480): > 40 µM
- IC50 (A549): 24.6 µM
- IC50 (MCF7): > 40 µM
- IC50 (HL-60): 21 µM

Structure (SMILES): O=C(C[n+]1ccn(C(c2ccccc2)c2ccc3oc4ccccc4c3c2)c1)c1ccc2ccccc2c1 (configuration not stated)
- IC50 (SMMC-7721 [23]): 3.61 µM
- IC50 (SW480): 2.57 µM
- IC50 (A549): 5.86 µM
- IC50 (MCF7): 2.78 µM
- IC50 (HL-60): 1.91 µM

Structure (SMILES): COc1ccc(C(=O)C[n+]2ccn(C(C)c3ccc4oc5ccccc5c4c3)c2C)cc1 (configuration not stated)
- IC50 (SMMC-7721 [23]): 1.43 µM
- IC50 (SW480): 5.78 µM
- IC50 (A549): 3.02 µM
- IC50 (MCF7): 1.29 µM
- IC50 (HL-60): 0.7 µM

Structure (SMILES): COc1ccc(C(=O)C[n+]2ccn(C(c3ccccc3)c3ccc4oc5ccccc5c4c3)c2C)cc1 (configuration not stated)
- IC50 (SMMC-7721 [23]): 2.08 µM
- IC50 (SW480): 3.73 µM
- IC50 (A549): 1.9 µM
- IC50 (MCF7): 2.42 µM
- IC50 (HL-60): 0.59 µM

Structure (SMILES): Cc1nccn1C(C)c1ccc2oc3ccccc3c2c1 (configuration not stated)
- IC50 (SMMC-7721 [23]): > 40 µM
- IC50 (SW480): 21.4 µM
- IC50 (A549): 16.2 µM
- IC50 (MCF7): 18.7 µM
- IC50 (HL-60): 10.9 µM

Structure (SMILES): CC(c1ccc2oc3ccccc3c2c1)n1cnc2ccccc21 (configuration not stated)
- IC50 (SMMC-7721 [23]): > 40 µM
- IC50 (SW480): > 40 µM
- IC50 (A549): > 40 µM
- IC50 (MCF7): > 40 µM
- IC50 (HL-60): > 40 µM

Structure (SMILES): CC(c1ccc2oc3ccccc3c2c1)n1c[n+](CC(=O)c2ccc(F)cc2)c2ccccc21 (configuration not stated)
- IC50 (SMMC-7721 [23]): 6.31 µM
- IC50 (SW480): 9.77 µM
- IC50 (A549): 13.7 µM
- IC50 (MCF7): 3.85 µM
- IC50 (HL-60): 1.67 µM

Structure (SMILES): CC(c1ccc2oc3ccccc3c2c1)n1c[n+](Cc2ccc([N+](=O)[O-])cc2)c2ccccc21 (configuration not stated)
- IC50 (SMMC-7721 [23]): 18.4 µM
- IC50 (SW480): 13.4 µM
- IC50 (A549): 32.3 µM
- IC50 (MCF7): 13.8 µM
- IC50 (HL-60): 5.93 µM

Structure (SMILES): Cc1n(C(C)c2ccc3oc4ccccc4c3c2)cc[n+]1CC(=O)c1ccc(F)cc1 (configuration not stated)
- IC50 (SMMC-7721 [23]): 4.7 µM
- IC50 (SW480): 12.3 µM
- IC50 (A549): 15.4 µM
- IC50 (MCF7): 16.2 µM
- IC50 (HL-60): 2.96 µM

Structure (SMILES): c1ccc(C(c2ccc3oc4ccccc4c3c2)n2cnc3ccccc32)cc1 (configuration not stated)
- IC50 (SMMC-7721 [23]): 25.4 µM
- IC50 (SW480): > 40 µM
- IC50 (A549): 23.4 µM
- IC50 (MCF7): 20.9 µM
- IC50 (HL-60): 17.2 µM

Structure (SMILES): CC(c1ccc2oc3ccccc3c2c1)n1cc[n+](CC(=O)c2ccc(F)cc2)c1 (configuration not stated)
- IC50 (SMMC-7721 [23]): 17.5 µM
- IC50 (SW480): 16.4 µM
- IC50 (A549): 22.6 µM
- IC50 (MCF7): 16.7 µM
- IC50 (HL-60): 2.64 µM

Structure (SMILES): Cc1n(C(c2ccccc2)c2ccc3oc4ccccc4c3c2)cc[n+]1CC(=O)c1ccc2ccccc2c1 (configuration not stated)
- IC50 (SMMC-7721 [23]): 2.57 µM
- IC50 (SW480): 2.62 µM
- IC50 (A549): 3.78 µM
- IC50 (MCF7): 2.31 µM
- IC50 (HL-60): 0.98 µM

Structure (SMILES): O=C(C[n+]1ccn(C(c2ccccc2)c2ccc3oc4ccccc4c3c2)c1)c1ccc(F)cc1 (configuration not stated)
- IC50 (SMMC-7721 [23]): 14.5 µM
- IC50 (SW480): 5.16 µM
- IC50 (A549): 10.2 µM
- IC50 (MCF7): 4 µM
- IC50 (HL-60): 3 µM

Structure (SMILES): O=C(c1ccccc1)C(c1ccccc1)[n+]1ccn(C(c2ccccc2)c2ccc3oc4ccccc4c3c2)c1 (configuration not stated)
- IC50 (SMMC-7721 [23]): 2.38 µM
- IC50 (SW480): 2.36 µM
- IC50 (A549): 3.75 µM
- IC50 (MCF7): 1.46 µM
- IC50 (HL-60): 0.52 µM

Structure (SMILES): O=C(C[n+]1cn(C(c2ccccc2)c2ccc3oc4ccccc4c3c2)c2ccccc21)c1ccccc1 (configuration not stated)
- IC50 (SMMC-7721 [23]): 4.61 µM
- IC50 (SW480): 3.54 µM
- IC50 (A549): 13.6 µM
- IC50 (MCF7): 2.5 µM
- IC50 (HL-60): 2.3 µM
